One data set in a line: Solubility in MPK. The class given is physicochemical. Conditions: solvent MPK.

Data on two molecules can be found in patent publication US6733690B1, “Laterally substituted curable liquid crystals” (Rolic AG, priority 1999, dated 2004).

Broadly, the melting point is the temperature of the solid-liquid transition. The molecule `C=CC(=O)OCCCCCCOc1ccc(C(=O)Oc2ccc(OC(=O)c3ccc(OCCCCCCOC(=O)C=C)cc3)c(C(=O)OCCCCCCCCOc3ccc(-c4ccc(C#N)cc4)cc3)c2)cc1` had a melting point of 72 °C. In addition, the “Solubility in MPK” value in “Solubility in MPK” is listed as 7.2%.

In turn, `C=CC(=O)OCCCCCCOc1ccc(C(=O)Oc2ccc(OC(=O)c3ccc(OCCCCCCOC(=O)C=C)cc3)c(C(=O)OCCOCCOc3ccc(-c4ccc(C#N)cc4)cc3)c2)cc1` returned a melting point of 54 °C. Moreover, the “Solubility in MPK” value in “Solubility in MPK” is given as 33.2%.
